Laboratory results as given in patent US20210078958A1, “QUINAZOLINE DERIVATIVE AND USE THEREOF” (MEDSHINE DISCOVERY INC., priority 2017, published 2021).

How the values were obtained:
[1] = biological target: HER1 (ErbB1) (Homo sapiens, UniProt P00533); experiment: in vitro enzyme activity, HER1 (ErbB1); assay type: biochemical; settings: human ErbB1, [γ-33P]ATP, poly(Glu, Tyr) substrate
Protocol: (§1) The purpose of this assay is to detect the in vitro inhibitory activity of compounds on HER1 (ErbB1), HER2 (ErbB2), and HER4 (ErbB4). The enzymes used in this assay are human ErbB1, ErbB2 and ErbB4. Eurofins Pharma Discovery Service provided the method for activity detection.
(§2) Steps and Method of the Assay (96-Well Plate):
(§3) A buffer solution of the test compounds in a dilution of 5-fold (5 μL), polypeptide substrate poly(Glu, Tyr) (4:1) (2.5 μL), ErbB (4-20 ng, 2.5 μL), MnCl2 (50 mM, 1.25 μL), dH2O (3.75 μL), and [γ-^33P]ATP (10 μL) were added, and incubated at 30° C. for 10 minutes. The reaction was terminated by adding 3% phosphoric acid. 10 μL of the sample was taken and transferred to Filtermate A. The filter disc was washed 3 times with 75 mM phosphoric acid and once with methanol. The filter disc was transferred to a sealed plastic bag and the scintillation mixture (4 mL) was added. The intensity of the emitted photon was detected by a scintillation luminescence counter. The CPM (times/min) of the enzyme sample was compared with the CPM of the internal control sample. The level of photon intensity reflected the degree of the tyrosine kinase activity.

[2] = biological target: HER4 (ErbB4) (Homo sapiens, UniProt Q15303); experiment: in vitro enzyme activity, HER4 (ErbB4); assay type: biochemical; settings: human ErbB4, [γ-33P]ATP, poly(Glu, Tyr) substrate
Sequence of HER4 (ErbB4) (Q15303 26-1308): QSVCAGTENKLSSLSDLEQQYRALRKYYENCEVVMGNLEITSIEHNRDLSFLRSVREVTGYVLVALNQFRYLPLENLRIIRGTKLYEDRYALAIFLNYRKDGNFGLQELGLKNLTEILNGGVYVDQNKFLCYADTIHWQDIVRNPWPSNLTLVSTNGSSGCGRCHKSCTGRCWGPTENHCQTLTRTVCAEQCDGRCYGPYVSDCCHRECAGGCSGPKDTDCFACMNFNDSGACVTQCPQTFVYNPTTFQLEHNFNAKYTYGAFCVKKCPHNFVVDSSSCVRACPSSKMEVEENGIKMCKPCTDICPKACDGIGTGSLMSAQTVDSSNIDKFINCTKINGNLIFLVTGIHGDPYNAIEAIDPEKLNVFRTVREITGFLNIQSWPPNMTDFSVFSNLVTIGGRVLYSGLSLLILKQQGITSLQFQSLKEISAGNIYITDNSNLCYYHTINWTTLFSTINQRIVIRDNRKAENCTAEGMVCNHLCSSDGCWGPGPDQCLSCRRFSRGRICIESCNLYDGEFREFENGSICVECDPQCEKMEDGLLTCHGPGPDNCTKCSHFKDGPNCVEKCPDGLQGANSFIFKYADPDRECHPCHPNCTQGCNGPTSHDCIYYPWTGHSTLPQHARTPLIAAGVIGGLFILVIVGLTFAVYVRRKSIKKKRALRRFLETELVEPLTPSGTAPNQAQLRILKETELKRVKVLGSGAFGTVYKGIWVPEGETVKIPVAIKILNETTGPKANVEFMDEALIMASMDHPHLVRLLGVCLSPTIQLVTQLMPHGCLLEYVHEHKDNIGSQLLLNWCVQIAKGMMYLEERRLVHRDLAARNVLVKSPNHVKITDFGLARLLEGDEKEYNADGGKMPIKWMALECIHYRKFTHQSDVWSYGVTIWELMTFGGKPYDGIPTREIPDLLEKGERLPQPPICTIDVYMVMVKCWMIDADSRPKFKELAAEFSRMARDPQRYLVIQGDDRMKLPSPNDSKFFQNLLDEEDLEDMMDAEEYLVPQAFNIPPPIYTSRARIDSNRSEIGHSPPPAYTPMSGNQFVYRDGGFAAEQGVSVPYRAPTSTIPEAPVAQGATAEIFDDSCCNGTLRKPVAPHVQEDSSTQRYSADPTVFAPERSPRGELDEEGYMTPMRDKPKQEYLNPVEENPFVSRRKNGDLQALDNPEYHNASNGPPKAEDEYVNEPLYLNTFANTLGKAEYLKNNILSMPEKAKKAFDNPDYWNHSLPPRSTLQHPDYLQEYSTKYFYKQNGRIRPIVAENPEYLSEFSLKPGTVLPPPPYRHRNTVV
Protocol: as §1, §2, §3

[3] = test system: OE21 cell; experiment: inhibitory activity on cell proliferation (Cell-Titer-Glo), OE21; assay type: cell-based; settings: Homo sapiens, OE21, 72 h, incubation for 3 days
Excerpt: (§4) Purpose of the assay: to detect the inhibitory activity of the test compounds on cell proliferation.
(§5) Principle of the assay: the luciferase in a Cell-Titer-Glo reagent produces oxidized luciferin with luciferin, oxygen and ATP as reaction substrates, and releases energy in the form of light. Since the luciferase reaction requires ATP, the total amount of light generated by the reaction is proportional to the total amount of ATP that reflects cell viability.
(§6) Cell Titer-Glo cell viability assay kit with luminescence (Promega #G7573)
(§7) According to the schematic diagram of the cell seed plate, cells were seeded in a 384- or 96-well plate at a density of 1000 cells per well and 25 μL per well, and 25 μL of PBS was added to the wells near edge of the place where no cells were seeded.
(§8) (1) The stock solution of the compounds has a concentration of 10 mM, and the compounds were diluted with DMSO to an initial concentration of 4 mM. The compounds were added to the plate with stock solution of compounds, 9 μL per well.
(§9) (2) The compounds were diluted with an ECHO liquid workstation, where 125 nL of compounds were added to each well of the cell plate, 125 nL of DMSO was added to each of the cell well in columns 2 and 23, and 125 nL of DMSO was added to each PBS well in columns 1 and 24.
(§10) 2.3 After addition of the compounds, the cell plate was centrifuged at 1000 rpm for 1 min, and then placed in a 37° C., 5% CO2 incubator for incubation for 3 days.
(§11) The cell plate was taken out from the incubator and equilibrated at room temperature for 30 minutes. 25 μL of Cell-Titer-Glo reagent was added to each well, shaken for one minute to allow well mixed, and centrifuged at 1000 rpm for 1 minute. After 10 minutes, the plate was read on PerkinElmer Envision, and the […] reading time was set to 0.2 second.

[4] = test system: OE19 cells; experiment: CTG assay of OE19 cells; assay type: cell-based; settings: Homo sapiens, 72 hours of cell culture, Cell Titer Glo
Protocol: OE19 cells with saturation of 80%-90% were digested with trypsin, centrifuged, resuspended and counted. The concentration of cells was adjusted to […]. OE19 cells were added to a 96-well cell culture plate to 8000 OE19 cells per well. The cells were cultured in a cell incubator containing 5% CO2 at 37° C. overnight.
The stock solution of the test compounds was serially 3-fold diluted with DMSO to a total of 10 concentrations. Before the start of the assay, the serially diluted test compounds were further diluted to 10× compound solutions (the compound with a highest concentration contains 1% DMSO) with cell culture medium under sterile conditions. The prepared 10× compound solutions were added to the cell culture plate, and the 10 μL compound solution was added to each well. In this way, the final concentrations of staurosporine as the standard control and all the test compounds were obtained starting from […] as the initial concentration in a 3-fold serial dilution to get 10 test concentrations.
After 72 hours of cell culture, the 96-well cell culture plate was taken out. Cell Titer Glo reagent was added at […], mixed, centrifuged, and incubated at room temperature in the dark for 10 minutes. The cell plate was placed in Envision for reading.
The inhibition rate was calculated according to original data as follows:
Inhibition %=(ZPE−sample detection value)/(ZPE−HPE)×100%
The well containing 10 mM staurosporine on DAY3 (the first day of the assay is the day when compounds were added, and DAY3 is the day when reading is perfomed) was used as the HPE (100% inhibition control) well, and the well containing 0.1% DMSO on DAY3 was used as the ZPE (0% inhibition control) well. Each concentration of test compounds was tested in duplicate.
Non-linear regression analysis was performed using the processed data and GraphPad Prism 6 analysis software to obtain a dose-response curve, and the half-inhibitory concentration (IC50) of the test compounds on OE19 cells was calculated.

[5] = biological target: HER2 (ErbB2) (Homo sapiens, UniProt P04626); experiment: in vitro enzyme activity, HER2 (ErbB2); assay type: biochemical; settings: human ErbB2, [γ-33P]ATP, poly(Glu, Tyr) substrate
Sequence of HER2 (ErbB2) (P04626 23-1255): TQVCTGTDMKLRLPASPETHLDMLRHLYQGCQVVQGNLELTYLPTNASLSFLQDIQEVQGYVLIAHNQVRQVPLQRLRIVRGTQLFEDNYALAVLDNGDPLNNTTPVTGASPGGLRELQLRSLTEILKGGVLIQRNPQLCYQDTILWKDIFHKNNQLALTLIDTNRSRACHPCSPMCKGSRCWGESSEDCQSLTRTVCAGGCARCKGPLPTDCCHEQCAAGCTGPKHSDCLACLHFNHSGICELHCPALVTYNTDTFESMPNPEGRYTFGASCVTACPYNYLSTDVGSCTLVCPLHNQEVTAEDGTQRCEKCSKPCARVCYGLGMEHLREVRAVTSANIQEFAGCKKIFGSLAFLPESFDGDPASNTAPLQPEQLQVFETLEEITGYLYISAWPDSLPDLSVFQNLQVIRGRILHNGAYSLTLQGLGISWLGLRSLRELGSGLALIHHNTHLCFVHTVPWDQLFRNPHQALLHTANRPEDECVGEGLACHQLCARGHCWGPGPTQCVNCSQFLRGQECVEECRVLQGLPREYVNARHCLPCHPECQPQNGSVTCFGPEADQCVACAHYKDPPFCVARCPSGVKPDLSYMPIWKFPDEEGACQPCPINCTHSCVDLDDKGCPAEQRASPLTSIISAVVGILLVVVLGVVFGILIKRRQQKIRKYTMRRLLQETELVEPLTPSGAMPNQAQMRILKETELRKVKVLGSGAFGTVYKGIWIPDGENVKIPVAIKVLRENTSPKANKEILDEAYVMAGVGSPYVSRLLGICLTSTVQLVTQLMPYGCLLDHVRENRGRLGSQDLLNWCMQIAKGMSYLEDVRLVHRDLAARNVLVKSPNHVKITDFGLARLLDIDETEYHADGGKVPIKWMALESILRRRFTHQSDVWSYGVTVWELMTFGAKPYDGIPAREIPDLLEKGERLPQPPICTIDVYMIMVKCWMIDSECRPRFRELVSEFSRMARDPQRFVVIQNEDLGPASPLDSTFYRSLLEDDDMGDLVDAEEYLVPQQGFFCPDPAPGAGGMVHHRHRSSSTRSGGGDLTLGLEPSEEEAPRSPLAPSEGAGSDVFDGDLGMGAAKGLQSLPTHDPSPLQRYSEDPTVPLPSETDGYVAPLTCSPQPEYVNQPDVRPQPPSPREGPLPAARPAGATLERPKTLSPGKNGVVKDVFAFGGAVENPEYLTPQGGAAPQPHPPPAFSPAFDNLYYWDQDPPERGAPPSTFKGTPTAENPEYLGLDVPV
Protocol: as §1, §2, §3

[6] = test system: NCI-N87 cell; experiment: inhibitory activity on cell proliferation (Cell-Titer-Glo), NCI-N87; assay type: cell-based; settings: Homo sapiens, NCI-N87, 72 h; incubation for 3 days, Cell-Titer-Glo
Excerpt: as §4, §5, §6, §7, §8, §9, §10, §11

Sequence of HER1 (ErbB1) (P00533 25-1210): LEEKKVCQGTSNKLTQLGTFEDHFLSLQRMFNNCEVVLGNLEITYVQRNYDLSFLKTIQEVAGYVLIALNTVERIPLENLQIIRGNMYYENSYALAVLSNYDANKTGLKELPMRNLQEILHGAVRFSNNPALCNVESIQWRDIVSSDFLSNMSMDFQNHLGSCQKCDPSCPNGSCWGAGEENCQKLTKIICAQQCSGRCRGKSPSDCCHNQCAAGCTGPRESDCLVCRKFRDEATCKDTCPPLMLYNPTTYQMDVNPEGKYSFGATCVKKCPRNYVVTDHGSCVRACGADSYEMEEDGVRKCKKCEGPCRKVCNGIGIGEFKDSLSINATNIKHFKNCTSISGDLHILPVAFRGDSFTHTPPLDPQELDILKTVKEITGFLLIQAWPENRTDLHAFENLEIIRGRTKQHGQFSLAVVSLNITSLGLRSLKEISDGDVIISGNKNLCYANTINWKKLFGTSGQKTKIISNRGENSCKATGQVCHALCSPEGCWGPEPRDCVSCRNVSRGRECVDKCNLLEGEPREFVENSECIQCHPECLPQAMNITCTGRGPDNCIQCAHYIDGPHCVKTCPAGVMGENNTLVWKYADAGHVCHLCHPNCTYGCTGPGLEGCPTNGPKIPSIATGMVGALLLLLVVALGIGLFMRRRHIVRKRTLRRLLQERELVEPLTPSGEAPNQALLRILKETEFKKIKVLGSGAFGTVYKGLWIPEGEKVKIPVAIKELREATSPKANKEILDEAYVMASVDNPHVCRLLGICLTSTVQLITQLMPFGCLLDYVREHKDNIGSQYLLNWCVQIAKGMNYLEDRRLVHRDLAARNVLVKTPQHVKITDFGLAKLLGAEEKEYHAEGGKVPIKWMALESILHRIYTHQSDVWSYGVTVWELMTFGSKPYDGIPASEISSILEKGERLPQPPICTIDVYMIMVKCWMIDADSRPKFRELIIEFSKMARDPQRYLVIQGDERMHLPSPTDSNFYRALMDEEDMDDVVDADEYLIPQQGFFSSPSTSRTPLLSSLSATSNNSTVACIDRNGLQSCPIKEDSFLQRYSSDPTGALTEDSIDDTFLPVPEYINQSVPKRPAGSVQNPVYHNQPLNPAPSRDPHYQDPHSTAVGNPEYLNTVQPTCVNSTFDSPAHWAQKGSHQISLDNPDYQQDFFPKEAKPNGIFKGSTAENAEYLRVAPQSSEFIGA

| SMILES | IC50 [1] | IC50 [2] | IC50 [3] | IC50 [4] | IC50 [5] | IC50 [6] |
| --- | --- | --- | --- | --- | --- | --- |
| C=CC(=O)N1[C@@H]2CC[C@H]1C[C@H](Nc1cc3c(Nc4ccc(F)c(Cl)c4F)ncnc3cc1OC)C2 [Example 48] | 9 nM | 4 nM | 0.17 nM | 0.24 nM | 11 nM | – |
| C=CC(=O)N1[C@@H]2CC[C@H]1C[C@H](Oc1cc3c(Nc4ccc(F)c(Cl)c4F)ncnc3cc1OC)C2 [Example 34] | 5 nM | 2 nM | 0.27 nM | 0.001 nM | 4 nM | 0.42 nM |
